In one experiment the target is T1, Recombinant human HDAC1 (Homo sapiens, UniProt Q13547).
T1 construct: FLAG (C); made in house
Kind of experiment: Human HDAC enzyme inhibitor Fluor-de-Lys assay, HDAC1. The experiment is classed as biochemical. The method in brief: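 Fluor-de-Lys format at room temperature (23° C.): compounds titrated 10-point, 1:3, preincubated with HDAC before substrate addition; HDAC1 run at 0.3 nM enzyme with 20 μM BML-KI104. Developer with excess HDAC inhibitor ends the reaction, and trypsin-liberated AMC fluorescence is the read-out.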

A further experiment concerns KARN cells (Jurkat 2C4). As to the kind of experiment: cells. The note with it: Homo sapiens, Jurkat. In kind it is cell-based. The method in brief:
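Luminescence (Steady-Glo, 10 min, room temperature) measured next day in KARN Jurkat 2C4 cells given compounds at up to 40 μM final with 0.4% DMSO. Percent activation normalised to DMSO (0%) and 2 μM SAHA (100%), fitted by 4-parameter curve.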

Setting [1] is: recombinant human HDAC1, Fluor-de-Lys assay.
Where [2] appears, read: read-out: Karn EC50 (nM) 0.1% NHS, 0.1% normal human serum, luciferase induction, 100% = 2 μM SAHA.
The mark [3] stands for this setting: read-out: Karn EC50 (nM) 5% NHS, 5% normal human serum, luciferase induction, 100% = 2 μM SAHA.
Where [4] appears, read: read-out: Karn EC50 (nM) 0.1% NHS, 0.1% normal human serum.
[5] abbreviates: read-out: Karn EC50 (nM) 5% NHS, 5% normal human serum.

Where two headings read alike, the source gives them in different places.

T1 sequence (Q13547 whole entry): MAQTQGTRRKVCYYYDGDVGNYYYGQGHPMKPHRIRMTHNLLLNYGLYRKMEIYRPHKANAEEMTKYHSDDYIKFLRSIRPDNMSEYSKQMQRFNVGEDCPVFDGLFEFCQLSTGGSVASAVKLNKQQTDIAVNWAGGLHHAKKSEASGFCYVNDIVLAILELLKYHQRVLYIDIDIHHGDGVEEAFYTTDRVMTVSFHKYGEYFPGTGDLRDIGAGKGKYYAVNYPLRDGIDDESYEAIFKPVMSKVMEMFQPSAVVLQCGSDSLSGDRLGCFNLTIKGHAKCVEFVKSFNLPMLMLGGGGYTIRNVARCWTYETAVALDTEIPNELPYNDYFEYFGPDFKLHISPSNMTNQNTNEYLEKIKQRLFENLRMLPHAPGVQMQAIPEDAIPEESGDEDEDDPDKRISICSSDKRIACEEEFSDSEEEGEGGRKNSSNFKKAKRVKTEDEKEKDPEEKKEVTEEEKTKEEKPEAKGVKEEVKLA

For the compound `CCC(=O)CCCCC[C@H](NC(=O)C1CC12CCN(CC)CC2)c1nc(-c2ccc(F)cc2)[nH]c1-c1cccs1` (stereo partly drawn) [Compound 252], the IC50 (in general, the concentration at which inhibition is half-maximal) on Recombinant human HDAC1 (setting [1]) is 56.6 nM. The EC50 (usually the concentration that produces a half-maximal response) with KARN cells (Jurkat 2C4) (setting [2]) was 1600 nM; with KARN cells (Jurkat 2C4) (setting [3]), 2880 nM.

As for `CCC(=O)CCCCC[C@H](NC(=O)[C@H]1CC12CCN(C)CC2)c1ncc(-c2ccc3cc(C#N)ccc3c2)[nH]1` [Compound 90], on Recombinant human HDAC1, the IC50 amounted to 0.28 nM. Besides, the EC50 in the experiment with KARN cells (Jurkat 2C4) (setting [4]) amounted to 52 nM; in the experiment on KARN cells (Jurkat 2C4) (setting [5]) it was 33 nM.

Consider `CCC(=O)CCCCC[C@H](NC(=O)[C@H]1CC12CN(C)C2)c1ncc(-c2cc3ccc(C)nc3cc2OC)o1` (single isomer, unassigned) [Compound 230], for which, on Recombinant human HDAC1 (setting [1]), the IC50 stood at 0.4 nM. The EC50 in the experiment with KARN cells (Jurkat 2C4) (setting [2]) turned out to be 88 nM; with KARN cells (Jurkat 2C4) (setting [3]), 83 nM.

Turning to `CCC(=O)CCCCC[C@H](NC(=O)[C@H]1CC12CCN(C)CC2)c1ncc(-c2ccc3ncoc3c2)[nH]1` [Compound 89], the IC50 on Recombinant human HDAC1 was 3.63 nM. Moreover, the EC50 in the experiment on KARN cells (Jurkat 2C4) (setting [4]) is 219 nM; in the experiment on KARN cells (Jurkat 2C4) (setting [5]), 237 nM.

On to `CCC(=O)CCCCC[C@H](NC(=O)[C@@H]1CC12CCN(C)CC2)c1nnc(-c2cc3ccccc3nc2OC)o1` [Compound 305], for which the IC50 at Recombinant human HDAC1 (setting [1]) was found to be 47.3 nM. Moreover, the concentration giving a half-maximal response (EC50) in the experiment with KARN cells (Jurkat 2C4) (setting [2]) was 2200 nM; with KARN cells (Jurkat 2C4) (setting [3]), 3090 nM.

For `CCC(=O)CCCCC[C@H](NC(=O)[C@H]1CC12CCN(C)CC2)c1[nH]c(-c2ccc(F)cc2)nc1Cl` [Compound 91], the IC50 on Recombinant human HDAC1 is 4.38 nM. The EC50 came out at 207 nM in the experiment on KARN cells (Jurkat 2C4) (setting [4]) and 274 nM in the experiment on KARN cells (Jurkat 2C4) (setting [5]).

With `CCC(=O)CCCCC[C@H](NC(=O)[C@H]1CC12CCN(C)CC2)c1[nH]c(-c2ccc(F)cc2)nc1Cl` [Compound 240], the IC50 at Recombinant human HDAC1 (setting [1]) is 5.73 nM. Besides, the figures for the EC50 in the experiment on KARN cells (Jurkat 2C4) (setting [2]) and in the experiment on KARN cells (Jurkat 2C4) (setting [3]) were 247 nM and 346 nM, respectively.

`CCC(=O)CCCCC[C@H](NC(=O)C1CC12CCN(CC)CC2)c1nc(-c2ccc(F)cc2)[nH]c1-c1cnc(OC)nc1` (stereo partly drawn) [Compound 247]: on Recombinant human HDAC1 (setting [1]), the IC50 stood at 39 nM. Also, the results for the EC50 with KARN cells (Jurkat 2C4) (setting [2]) and in the experiment with KARN cells (Jurkat 2C4) (setting [3]) were 9640 nM and 10800 nM, respectively.

On to `CCC(=O)CCCCC[C@H](NC(=O)C1=NOC2(CCN(C)CC2)C1)c1ncc(-c2ccc(-c3cnccn3)cc2OC)o1` [Compound 237, N-{(1S)-1-[5-(2-methoxy-4-pyrazin-2-ylphenyl)-1,3-oxazol-2-yl]-7-oxononyl}-8-methyl-1-oxa-2,8-diazaspiro[4.5]dec-2-ene-3-carboxamide], for which, at Recombinant human HDAC1 (setting [1]), the IC50 came to 2.41 nM. The values for the EC50 with KARN cells (Jurkat 2C4) (setting [2]) and in the experiment with KARN cells (Jurkat 2C4) (setting [3]) were 235 nM and 274 nM, respectively.

Regarding `CCC(=O)CCCCCC(NC(=O)C1CCC2(CC1)OC(=O)c1ccncc12)c1nnc(-c2cc3ccccc3nc2OC)o1` (stereo not drawn) [Compound 363], the IC50 on Recombinant human HDAC1 (setting [1]) was found to be 85.5 nM. For the same compound, the EC50 was found to be 2080 nM in the experiment on KARN cells (Jurkat 2C4) (setting [2]) and 4810 nM in the experiment on KARN cells (Jurkat 2C4) (setting [3]).

Take `CCC(=O)CCCCC[C@H](NC(=O)C1CC12CCN(CC)CC2)c1nc(-c2ccc(F)cc2)[nH]c1-c1cnn(C)c1` (stereo partly drawn) [Compound 248]: the IC50 at Recombinant human HDAC1 (setting [1]) was determined as 5.84 nM. For the same compound, the EC50 with KARN cells (Jurkat 2C4) (setting [2]) was 183 nM; in the experiment on KARN cells (Jurkat 2C4) (setting [3]) it was 429 nM.

Regarding `CCC(=O)CCCCC[C@H](NC(=O)[C@H]1CC12CCN(CC1CC1)CC2)c1ncc(-c2cc3ccc(C)nc3cc2F)[nH]1` [Compound 228], at Recombinant human HDAC1 (setting [1]), the IC50 is 0.12 nM. The EC50 in the experiment with KARN cells (Jurkat 2C4) (setting [2]) and in the experiment with KARN cells (Jurkat 2C4) (setting [3]) was 22 nM each time.

With `CCC(=O)CCCCC[C@@H](NC(=O)C1CCC2(CC1)CN(C)C2)c1ncc(-c2ccccc2)[nH]1` [Compound 310], the IC50 at Recombinant human HDAC1 (setting [1]) stood at 33 nM. Also, the EC50 worked out at 1490 nM in the experiment with KARN cells (Jurkat 2C4) (setting [2]) and 1920 nM with KARN cells (Jurkat 2C4) (setting [3]).

`CCC(=O)CCCCC[C@H](NC(=O)[C@H]1CC12CCN(C)CC2)c1ncc(-c2ccc(F)cc2F)[nH]1` [Compound 289]: the IC50 at Recombinant human HDAC1 (setting [1]) came out at 63.1 nM. In addition, the EC50 came to 1060 nM in the experiment with KARN cells (Jurkat 2C4) (setting [2]) and 1090 nM with KARN cells (Jurkat 2C4) (setting [3]).

For the compound `CCC(=O)CCCCC[C@H](NC(=O)CC1CC2(C1)CN(C)C2)c1ncc(-c2cc3ccccc3nc2O)[nH]1` [Compound 326], the IC50 at Recombinant human HDAC1 (setting [1]) amounted to 3.27 nM. The values for the EC50 in the experiment with KARN cells (Jurkat 2C4) (setting [2]) and in the experiment on KARN cells (Jurkat 2C4) (setting [3]) were 2400 nM and 3820 nM, respectively.

Values taken from patent publication US12590099B2, “Inhibitors of histone deacetylase useful for the treatment or prevention of HIV infection” (Merck Sharp & Dohme LLC, priority 2018, dated 2026).
